Source: PubChem BioAssay AID1745844 (Carcinogenic Potency Database (CPDB), 2022)

Test system: rodent lifetime carcinogenesis bioassay, tumor incidence TD50
Assay: carcinogenic potency in animals, long-term in vivo studies, CPDB compilation (AID 1745844)
Conditions: in feed

Nc1c(Br)cc(Br)c2c1C(=O)c1ccccc1C2=O
TD50 (mouse, strain B6C3F1, females, site: any site (literature study), lesion: several types, types named in the paper, dosed 104 weeks, study length 104 weeks): 1030 mg/kg/day
TD50 (mouse, strain B6C3F1, females, site: forestomach + liver + lung, lesion: squamous-cell carcinoma + squamous-cell papilloma + hepatocellular adenoma + hepatocellular carcinoma + alveolar/bronchiolar ade, dosed 104 weeks, study length 104 weeks): 546 mg/kg/day
TD50 (mouse, strain B6C3F1, females, site: forestomach, lesion: squamous-cell carcinoma + squamous-cell papilloma, dosed 104 weeks, study length 104 weeks): 1230 mg/kg/day
TD50 (mouse, strain B6C3F1, females, site: forestomach, lesion: squamous-cell carcinoma, dosed 104 weeks, study length 104 weeks): 3930 mg/kg/day
TD50 (mouse, strain B6C3F1, females, site: forestomach, lesion: squamous-cell papilloma, dosed 104 weeks, study length 104 weeks): 1760 mg/kg/day
TD50 (mouse, strain B6C3F1, females, site: liver, lesion: hepatocellular adenoma + hepatoblastoma + hepatocellular carcinoma, dosed 104 weeks, study length 104 weeks): 490 mg/kg/day
TD50 (mouse, strain B6C3F1, females, site: liver, lesion: hepatocellular adenoma + hepatocellular carcinoma, dosed 104 weeks, study length 104 weeks): 490 mg/kg/day
TD50 (mouse, strain B6C3F1, females, site: liver, lesion: hepatocellular adenoma, dosed 104 weeks, study length 104 weeks): 515 mg/kg/day
TD50 (mouse, strain B6C3F1, females, site: liver, lesion: hepatocellular carcinoma, dosed 104 weeks, study length 104 weeks): 1530 mg/kg/day
TD50 (mouse, strain B6C3F1, females, site: lung, lesion: alveolar/bronchiolar adenoma + alveolar/bronchiolar carcinoma, dosed 104 weeks, study length 104 weeks): 1990 mg/kg/day
TD50 (mouse, strain B6C3F1, females, site: lung, lesion: alveolar/bronchiolar adenoma, dosed 104 weeks, study length 104 weeks): 1990 mg/kg/day
TD50 (mouse, strain B6C3F1, females, site: pituitary gland, lesion: pars distalis adenoma, dosed 104 weeks, study length 104 weeks): 3750 mg/kg/day
TD50 (mouse, strain B6C3F1, females, site: uterus, lesion: endometrial stromal polyp + endometrial stromal sarcoma, dosed 104 weeks, study length 104 weeks): 6820 mg/kg/day
TD50 (mouse, strain B6C3F1, males, site: any site (literature study), lesion: several types, types named in the paper, dosed 103 weeks, study length 104 weeks): 566 mg/kg/day
TD50 (mouse, strain B6C3F1, males, site: forestomach + liver + lung, lesion: squamous-cell carcinoma + squamous-cell papilloma + hepatocellular adenoma + hepatoblastoma + hepatocellular carcinoma + alveolar/, dosed 103 weeks, study length 104 weeks): 465 mg/kg/day
TD50 (mouse, strain B6C3F1, males, site: forestomach, lesion: squamous-cell carcinoma + squamous-cell papilloma, dosed 103 weeks, study length 104 weeks): 1130 mg/kg/day
TD50 (mouse, strain B6C3F1, males, site: forestomach, lesion: squamous-cell carcinoma, dosed 103 weeks, study length 104 weeks): 2730 mg/kg/day
TD50 (mouse, strain B6C3F1, males, site: forestomach, lesion: squamous-cell papilloma, dosed 103 weeks, study length 104 weeks): 1680 mg/kg/day
TD50 (mouse, strain B6C3F1, males, site: liver, lesion: hepatoblastoma + hepatocellular carcinoma, dosed 103 weeks, study length 104 weeks): 1870 mg/kg/day
TD50 (mouse, strain B6C3F1, males, site: liver, lesion: hepatoblastoma, dosed 103 weeks, study length 104 weeks): 9250 mg/kg/day
TD50 (mouse, strain B6C3F1, males, site: liver, lesion: hepatocellular adenoma + hepatoblastoma + hepatocellular carcinoma, dosed 103 weeks, study length 104 weeks): 467 mg/kg/day
TD50 (mouse, strain B6C3F1, males, site: liver, lesion: hepatocellular adenoma + hepatocellular carcinoma, dosed 103 weeks, study length 104 weeks): 467 mg/kg/day
TD50 (mouse, strain B6C3F1, males, site: liver, lesion: hepatocellular adenoma, dosed 103 weeks, study length 104 weeks): 464 mg/kg/day
TD50 (mouse, strain B6C3F1, males, site: liver, lesion: hepatocellular carcinoma, dosed 103 weeks, study length 104 weeks): 2240 mg/kg/day
TD50 (mouse, strain B6C3F1, males, site: lung, lesion: alveolar/bronchiolar adenoma + alveolar/bronchiolar carcinoma, dosed 103 weeks, study length 104 weeks): 817 mg/kg/day
TD50 (mouse, strain B6C3F1, males, site: lung, lesion: alveolar/bronchiolar adenoma, dosed 103 weeks, study length 104 weeks): 831 mg/kg/day
TD50 (rat, strain Fischer 344, females, site: any site (literature study), lesion: several types, types named in the paper, dosed 40 weeks, study length 66 weeks): 135 mg/kg/day
TD50 (rat, strain Fischer 344, females, site: any site (literature study), lesion: several types, types named in the paper, dosed 66 weeks, study length 66 weeks): 147 mg/kg/day
TD50 (rat, strain Fischer 344, females, site: any site (literature study), lesion: several types, types named in the paper, dosed 103 weeks, study length 104 weeks): 160 mg/kg/day
TD50 (rat, strain Fischer 344, females, site: cecum + colon + kidney + liver + rectum + urinary bladder, lesion: polypoid adenoma + adenocarcinoma + tubule adenoma + tubule carcinoma + hepatocholangiocarcinoma + hepatocellular adenoma + hepatoce, dosed 103 weeks, study length 104 weeks): 31 mg/kg/day
TD50 (rat, strain Fischer 344, females, site: cecum + colon + rectum, lesion: polypoid adenoma, dosed 40 weeks, study length 66 weeks): 217 mg/kg/day
TD50 (rat, strain Fischer 344, females, site: cecum + colon + rectum, lesion: polypoid adenoma, dosed 66 weeks, study length 66 weeks): 1270 mg/kg/day
TD50 (rat, strain Fischer 344, females, site: cecum + colon + rectum, lesion: polypoid adenoma, dosed 103 weeks, study length 104 weeks): 72.9 mg/kg/day
TD50 (rat, strain Fischer 344, females, site: colon + rectum, lesion: adenocarcinoma, dosed 103 weeks, study length 104 weeks): 414 mg/kg/day
TD50 (rat, strain Fischer 344, females, site: kidney, lesion: tubule adenoma + tubule carcinoma, dosed 40 weeks, study length 66 weeks): 418 mg/kg/day
TD50 (rat, strain Fischer 344, females, site: kidney, lesion: tubule adenoma + tubule carcinoma, dosed 66 weeks, study length 66 weeks): 1520 mg/kg/day
TD50 (rat, strain Fischer 344, females, site: kidney, lesion: tubule adenoma + tubule carcinoma, dosed 103 weeks, study length 104 weeks): 388 mg/kg/day
TD50 (rat, strain Fischer 344, females, site: kidney, lesion: tubule adenoma, dosed 40 weeks, study length 66 weeks): 418 mg/kg/day
TD50 (rat, strain Fischer 344, females, site: kidney, lesion: tubule adenoma, dosed 66 weeks, study length 66 weeks): 1520 mg/kg/day
TD50 (rat, strain Fischer 344, females, site: kidney, lesion: tubule adenoma, dosed 103 weeks, study length 104 weeks): 388 mg/kg/day
TD50 (rat, strain Fischer 344, females, site: liver, lesion: hepatocellular adenoma + hepatoblastoma + hepatocellular carcinoma, dosed 40 weeks, study length 66 weeks): 121 mg/kg/day
TD50 (rat, strain Fischer 344, females, site: liver, lesion: hepatocellular adenoma + hepatoblastoma + hepatocellular carcinoma, dosed 66 weeks, study length 66 weeks): 121 mg/kg/day
TD50 (rat, strain Fischer 344, females, site: liver, lesion: hepatocellular adenoma + hepatoblastoma + hepatocellular carcinoma, dosed 103 weeks, study length 104 weeks): 40.1 mg/kg/day
TD50 (rat, strain Fischer 344, females, site: liver, lesion: hepatocellular adenoma + hepatocellular carcinoma, dosed 40 weeks, study length 66 weeks): 121 mg/kg/day
TD50 (rat, strain Fischer 344, females, site: liver, lesion: hepatocellular adenoma + hepatocellular carcinoma, dosed 66 weeks, study length 66 weeks): 121 mg/kg/day
TD50 (rat, strain Fischer 344, females, site: liver, lesion: hepatocellular adenoma + hepatocellular carcinoma, dosed 103 weeks, study length 104 weeks): 40.1 mg/kg/day
TD50 (rat, strain Fischer 344, females, site: liver, lesion: hepatocellular adenoma, dosed 40 weeks, study length 66 weeks): 191 mg/kg/day
TD50 (rat, strain Fischer 344, females, site: liver, lesion: hepatocellular adenoma, dosed 66 weeks, study length 66 weeks): 219 mg/kg/day
TD50 (rat, strain Fischer 344, females, site: liver, lesion: hepatocellular adenoma, dosed 103 weeks, study length 104 weeks): 53.9 mg/kg/day
TD50 (rat, strain Fischer 344, females, site: liver, lesion: hepatocellular carcinoma, dosed 40 weeks, study length 66 weeks): 167 mg/kg/day
TD50 (rat, strain Fischer 344, females, site: liver, lesion: hepatocellular carcinoma, dosed 66 weeks, study length 66 weeks): 124 mg/kg/day
TD50 (rat, strain Fischer 344, females, site: liver, lesion: hepatocellular carcinoma, dosed 103 weeks, study length 104 weeks): 88.4 mg/kg/day
